In US7750053B2, “Compositions and methods for alleviating hypertension or preventing a rise in blood pressure” (KAO Corporation, priority 2000, dated 2010):
Marks after values point to notes of the source that are not given here.

How the values were obtained:
calcium = settings: from spike of Schizonepeta tenuifolia Briq.; JP Kokai Hei 4-243822; cited from earlier work
[1] = test system: spontaneously hypertensive rats (SHR); assay: Evaluation of blood pressure reduction (single administration, systolic blood pressure of the caudal artery); format: in vivo, rat; settings: male 15 week-old SHR, fasted overnight, solution in physiological saline (0.2% actives in total), 1 mL/kg, mean ± SD, n=5; for Systolic blood pressure (changing ratio %) after 10 minutes: 10 minutes after administration vs prior to administration; for Systolic blood pressure (changing ratio %) After 1 hour: 1 hour after administration vs prior to administration
Method: Prior to initiation of the experimental studies in order to accustom the test animals to sphygmomanometric operation the blood pressure of each test animal—male, 15 week-old, spontaneously hypertensive rats (“SHR”)—was preliminarily measured for 7 successive days using a commercially available noninvasive sphygmomanometer for rats (manufactured by Softlon Co., Ltd.).
Rats were all bred in a breeding room in a rat region under uniform conditions at a room temperature at 25±1° C., humidity of 55±10% RH and illumination for 12 hours (from 7:00 am to 7:00 pm).
In the control group (Control Plot, see Table 1), physiological saline was employed. As a material to be administered, a solution obtained by dissolving 0.2 wt. % (which will hereinafter be simply described as %) of caffeic acid in physiological saline, a solution obtained by dissolving 0.2% of a chlorogenic acid in physiological saline, a solution obtained by dissolving 0.2% of ferulic acid in physiological saline and a solution obtained by dissolving 0.1% of caffeic acid and 0.1% of ferulic acid in physiological saline were used in Test plot 1, Test plot 2, Test plot 3 and Test plot 4, respectively. In Test plot 5, a solution obtained by dissolving 0.1% of a chlorogenic acid and 0.1% of ferulic acid in physiological saline was used, while in Test plot 6, a solution obtained by dissolving 0.05% of caffeic acid, 0.05% of a chlorogenic acid and 0.1% of ferulic acid in physiological saline was used. Each of them was administered from the common carotid artery. The dosage was 1 mL/kg.
SHRs were fasted overnight and employed for each test group, each group consisted of 5 rats. Systolic blood pressures of the caudal artery prior to intravenous administration, and 10 minutes and 1 hour each after administration were measured.
In Table 1, the changing ratio (%) in systolic blood pressure for each experimental group is reported by its mean value (%) and by its standard deviation. The Student's t-test was used to indicate the statistical significance of the experimental data. A significance level of 5% or less is indicated as “*” in Table 1, and significance level of 0.1% or less as “***”.
A lowering ratio of the systolic blood pressure of each of 10 minutes and 1 hour after administration to the systolic blood pressure prior to administration is shown in Table 1.

[2] = biological target: angiotensin I converting enzyme (ACE) (Homo sapiens, UniProt P12821); settings: polyphenols of unripe Rosaceae fruit juice; JP Kokai Hei 8-259453; cited from earlier work
Sequence of angiotensin I converting enzyme (ACE) (P12821 30-1306, species assumed): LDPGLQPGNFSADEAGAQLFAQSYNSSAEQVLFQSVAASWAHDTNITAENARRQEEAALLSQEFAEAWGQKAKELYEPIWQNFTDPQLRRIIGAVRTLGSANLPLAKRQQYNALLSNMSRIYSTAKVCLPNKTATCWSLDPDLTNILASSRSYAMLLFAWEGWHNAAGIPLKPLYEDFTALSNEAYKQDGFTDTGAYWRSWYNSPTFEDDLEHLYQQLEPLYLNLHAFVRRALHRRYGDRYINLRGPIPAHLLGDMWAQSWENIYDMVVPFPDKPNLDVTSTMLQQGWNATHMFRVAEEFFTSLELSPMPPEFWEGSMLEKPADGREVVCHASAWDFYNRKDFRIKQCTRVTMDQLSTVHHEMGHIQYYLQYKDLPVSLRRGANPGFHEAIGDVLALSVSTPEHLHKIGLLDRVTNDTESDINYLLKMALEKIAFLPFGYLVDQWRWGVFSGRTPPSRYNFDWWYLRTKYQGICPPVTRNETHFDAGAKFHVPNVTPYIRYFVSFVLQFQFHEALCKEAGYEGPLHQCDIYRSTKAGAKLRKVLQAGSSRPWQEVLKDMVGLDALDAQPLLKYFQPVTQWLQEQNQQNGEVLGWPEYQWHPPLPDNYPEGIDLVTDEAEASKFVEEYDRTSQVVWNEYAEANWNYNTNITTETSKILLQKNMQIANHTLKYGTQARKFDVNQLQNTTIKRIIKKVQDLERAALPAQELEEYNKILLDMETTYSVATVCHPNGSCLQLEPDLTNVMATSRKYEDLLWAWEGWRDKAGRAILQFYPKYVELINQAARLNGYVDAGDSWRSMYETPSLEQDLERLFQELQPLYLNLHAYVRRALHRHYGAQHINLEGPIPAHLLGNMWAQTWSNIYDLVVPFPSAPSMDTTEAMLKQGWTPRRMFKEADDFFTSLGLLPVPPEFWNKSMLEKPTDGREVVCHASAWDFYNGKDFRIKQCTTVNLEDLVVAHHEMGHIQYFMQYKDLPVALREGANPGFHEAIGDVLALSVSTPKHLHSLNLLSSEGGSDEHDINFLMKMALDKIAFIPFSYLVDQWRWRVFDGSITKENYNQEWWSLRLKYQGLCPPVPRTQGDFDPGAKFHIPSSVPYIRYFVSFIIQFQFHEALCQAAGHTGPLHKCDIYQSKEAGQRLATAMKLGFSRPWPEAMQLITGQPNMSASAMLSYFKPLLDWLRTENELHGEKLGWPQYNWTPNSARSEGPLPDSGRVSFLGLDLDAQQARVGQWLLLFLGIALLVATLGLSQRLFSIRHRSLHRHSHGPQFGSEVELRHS

Row | SMILES | calcium antagonism (in words) (calcium) | Systolic blood pressure (changing ratio %) after 10 minutes [1] | Systolic blood pressure (changing ratio %) After 1 hour [1] | angiotensin I converting enzyme (ACE) inhibitory action (in words) [2]
1 | O=C(O)/C=C/c1ccc(O)c(O)c1 [Caffeic acid (CA), caffeic acid] | exerts calcium antagonism | −4.1 ± 2.1% | −10.2 ± 0.5*** % | inhibitory action
2 | O=C(/C=C/c1ccc(O)c(O)c1)O[C@@H]1C[C@](O)(C(=O)O)C[C@@H](O)[C@H]1O [Chlorogenic acid (CHA), chlorogenic acid] | – | −3.2 ± 2.6% | −7.2 ± 1.7* % | inhibitory action
3 | COc1cc(/C=C/C(=O)O)ccc1O [Ferulic acid (FA), ferulic acid] | – | −7.8 ± 0.8*** % | 0.7 ± 2.6% | –
